Measurements as given in publication PMC6001238, “Iterative Chemical Engineering of Vancomycin Leads to Novel Vancomycin Analogs With a High in Vitro Therapeutic Index” (Frontiers in Microbiology, 2018).
≈ marks a conversion by molar mass, not a printed value.

Tests used:
[1] = system: S. aureus VRSA; experiment: MIC, broth microdilution, vancomycin-resistant S. aureus (VRSA); assay type: cell-based, Staphylococcus aureus; conditions: for MIC: Staphylococcus aureus VRSA, read-out: MIC; for MIC-fold improvement vs. vancomycin: VRSA, ratio of MIC of vancomycin and MIC of analogue
How it was run: (§1)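 Following CLSI antimicrobial susceptibility standards, organisms were tested by broth microdilution. Controls comprised ultrapure water plus broth left uninoculated. For a single condition, 10 μM vancomycin (final) accompanied the analog or control agent.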

[2] = system: Murine leukemia (L1210) cells; experiment: Cytostatic activity, L1210 cell proliferation; assay type: cell-based; conditions: mean ± SD of three experiments; highest concentration tested 250 µM; 2 days; read-out: Toxicity (IC50) L1210
How it was run: (§2)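 Readout: Coulter cell number after drug exposure at 37°C. Durations differ by line (L1210 2 days; CEM 3 days; HeLa 4 days). Stock suspension 300,000–500,000 cells/mL, diluted by mixing with compound. Endpoint: IC50 vs negative control.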

[3] = system: E. faecalis VSE 1; experiment: MIC, broth microdilution, vancomycin-sensitive E. faecalis (VSE 1); assay type: cell-based, Enterococcus faecalis; conditions: for MIC: Enterococcus faecalis VSE 1 (vancomycin-sensitive), read-out: MIC; for MIC-fold improvement vs. vancomycin: VSE 1, ratio of MIC of vancomycin and MIC of analogue
How it was run: as §1

[4] = system: E. faecalis VRE 53; experiment: MIC, broth microdilution, vancomycin-resistant E. faecalis VRE 53 (VanA); assay type: cell-based, Enterococcus faecalis; conditions: for MIC: Enterococcus faecalis VRE 53 (vancomycin-resistant), read-out: MIC; for MIC-fold improvement vs. vancomycin: VRE 53, ratio of MIC of vancomycin and MIC of analogue
How it was run: as §1

[5] = system: E. faecalis VRE 37; experiment: MIC, broth microdilution, vancomycin-resistant E. faecalis VRE 37 (VanA); assay type: cell-based, Enterococcus faecalis; conditions: Enterococcus faecalis VRE 37 (vancomycin-resistant); read-out: MIC
How it was run: as §1

[6] = system: S. aureus VISA/HIP5827; experiment: MIC, broth microdilution, vancomycin-intermediate S. aureus VISA HIP5827; assay type: cell-based, Staphylococcus aureus; conditions: for MIC: Staphylococcus aureus VISA/HIP5827, read-out: MIC; for MIC-fold improvement vs. vancomycin: VISA/HIP5827, ratio of MIC of vancomycin and MIC of analogue
How it was run: as §1

[7] = system: human T-lymphocyte (CEM) cells; experiment: Cytostatic activity, CEM cell proliferation; assay type: cell-based; conditions: mean ± SD of three experiments; highest concentration tested 250 µM; 3 days; read-out: Toxicity (IC50) CEM
How it was run: as §2

[8] = system: MRSA KS89; experiment: MIC, broth microdilution, MRSA KS89; assay type: cell-based, Staphylococcus aureus; conditions: for MIC-fold improvement vs. vancomycin: MRSA KS8, ratio of MIC of vancomycin and MIC of analogue; for MIC: Staphylococcus aureus MRSA KS8, read-out: MIC
How it was run: as §1

[9] = system: MRSA KS1; experiment: MIC, broth microdilution, MRSA KS1; assay type: cell-based, Staphylococcus aureus; conditions: for MIC-fold improvement vs. vancomycin: MRSA KS1, ratio of MIC of vancomycin and MIC of analogue; for MIC: Staphylococcus aureus MRSA KS1, read-out: MIC
How it was run: as §1

[10] = system: MRSA KS6; experiment: MIC, broth microdilution, MRSA KS6; assay type: cell-based, Staphylococcus aureus; conditions: for MIC-fold improvement vs. vancomycin: MRSA KS6, ratio of MIC of vancomycin and MIC of analogue; for MIC: Staphylococcus aureus MRSA KS6, read-out: MIC
How it was run: as §1

[11] = system: Clostridium difficile AIU ribotype 027; experiment: MIC, plate drop assay, C. difficile AIU ribotype 027; assay type: cell-based; conditions: for MIC-fold improvement vs. vancomycin: C. difficile AIU ribotype 027
Experimental: (§3) Bacterial lawns of both C. difficile strains were prepared by adding 0.5 mL overnight culture to 8 mL sloppy BHI agar (0.4% agar) supplemented with 1.5 g/L CaCl2⋅2H2O and 81.2 g/L MgCl2⋅6H2O, and pouring the mixture into Petri plates. A twofold dilution series of the selected vancomycin analogs, vancomycin ([…]) and daptomycin (25 μM) was spotted (10 μL) on the bacterial lawn. Spots were air-dried and the plates were incubated overnight at 37°C in an anaerobic cabinet. Ultrapure water was included as negative control. The assay was performed in triplicate. Inhibition was observed by cleared spots.

[12] = system: S. aureus VSSA (ATCC 6538); experiment: MIC, broth microdilution, vancomycin-sensitive S. aureus (VSSA/MSSA, ATCC 6538); assay type: cell-based, Staphylococcus aureus; conditions: for MIC: Staphylococcus aureus VSSA, read-out: MIC; for MIC-fold improvement vs. vancomycin: VSSA, ratio of MIC of vancomycin and MIC of analogue
How it was run: as §1

[13] = system: MRSA KS2; experiment: MIC, broth microdilution, MRSA KS2; assay type: cell-based, Staphylococcus aureus; conditions: for MIC-fold improvement vs. vancomycin: MRSA KS2, ratio of MIC of vancomycin and MIC of analogue; for MIC: Staphylococcus aureus MRSA KS2, read-out: MIC
How it was run: as §1

[14] = system: L1210, CEM and HeLa cell lines; experiment: Cytostatic activity, average or summary over L1210, CEM and HeLa; assay type: cell-based; conditions: average of L1210, CEM and HeLa; read-out: Toxicity (IC50) Average
How it was run: as §2

[15] = system: Clostridium difficile ATJ ribotype 014/20; experiment: MIC, plate drop assay, C. difficile ATJ ribotype 014/20; assay type: cell-based; conditions: for MIC-fold improvement vs. vancomycin: C. difficile ATJ ribotype 014/20
Experimental: as §3

[16] = system: E. faecalis VRE 29; experiment: MIC, broth microdilution, vancomycin-resistant E. faecalis VRE 29 (VanA); assay type: cell-based, Enterococcus faecalis; conditions: for MIC: Enterococcus faecalis VRE 29 (vancomycin-resistant), read-out: MIC; for MIC-fold improvement vs. vancomycin: VRE 29, ratio of MIC of vancomycin and MIC of analogue
How it was run: as §1

[17] = system: E. faecalis VRE 6; experiment: MIC, broth microdilution, vancomycin-resistant E. faecalis VRE 6 (VanA); assay type: cell-based, Enterococcus faecalis; conditions: for MIC: Enterococcus faecalis VRE 6 (vancomycin-resistant), read-out: MIC; for MIC-fold improvement vs. vancomycin: VRE 6, ratio of MIC of vancomycin and MIC of analogue
How it was run: as §1

[18] = system: human cervix carcinoma (HeLa) cells; experiment: Cytostatic activity, HeLa cell proliferation; assay type: cell-based; conditions: mean ± SD of three experiments; highest concentration tested 250 µM; 4 days; read-out: Toxicity (IC50) HeLa
How it was run: as §2

Row | Structure (SMILES) | MIC [1] [µM] | MIC-fold improvement vs. vancomycin [1] | IC50 [2] [µM] | MIC [3] [µM] | MIC-fold improvement vs. vancomycin [3] | MIC [4] [µM] | MIC-fold improvement vs. vancomycin [4] | MIC [5] [µM] | MIC [6] [µM] | MIC-fold improvement vs. vancomycin [6] | IC50 [7] [µM] | MIC-fold improvement vs. vancomycin [8] | MIC [8] [µM] | MIC-fold improvement vs. vancomycin [9] | MIC [9] [µM] | MIC-fold improvement vs. vancomycin [10] | MIC [10] [µM] | MIC-fold improvement vs. vancomycin [11] | MIC [12] [µM] | MIC-fold improvement vs. vancomycin [12] | other results
1 | CN[C@H](CC(C)C)C(=O)N[C@H]1C(=O)N[C@@H](CC(N)=O)C(=O)N[C@H]2C(=O)N[C@H]3C(=O)N[C@H](C(=O)N[C@H](C(=O)NCCNC(=O)/C=C/c4ccc(F)cc4)c4cc(O)cc(O)c4-c4cc3ccc4O)[C@H](O)c3ccc(c(Cl)c3)Oc3cc2cc(c3O[C@@H]2O[C@H](CO)[C@@H](O)[C@H](O)[C@H]2O[C@H]2C[C@](C)(N)[C@H](O)[C@H](C)O2)Oc2ccc(cc2Cl)[C@H]1O [Vanc-22] | 3.13 (≈ 5.13 µg/mL) | 32 | > 250 | 0.39 (≈ 0.639 µg/mL) | 4 | 25 (≈ 41 µg/mL) | 16 | 12.5 (≈ 20.5 µg/mL) | 1.56 (≈ 2.56 µg/mL) | 4 | > 250 | 2 | 0.39 (≈ 0.639 µg/mL) | 2 | 0.39 (≈ 0.639 µg/mL) | 2 | 0.39 (≈ 0.639 µg/mL) | 7 | 0.39 (≈ 0.639 µg/mL) | 2 | MIC ([11]; C. difficile AIU ribotype 027, plate drop assay): 6.25 µM (≈ 10.2 µg/mL); MIC-fold improvement vs. vancomycin [13]: 2; MIC [13]: 0.39 µM (≈ 0.639 µg/mL); IC50 [14]: 192 µM; MIC-fold improvement vs. vancomycin [15]: 5.6; MIC ([15]; C. difficile ATJ ribotype 014/20, plate drop assay): 6.25 µM (≈ 10.2 µg/mL); MIC [16]: 12.5 µM (≈ 20.5 µg/mL); MIC-fold improvement vs. vancomycin [16]: 32; MIC [17]: 1.56 µM (≈ 2.56 µg/mL); MIC-fold improvement vs. vancomycin [17]: 128; IC50 [18]: 76 ± 11 µM
2 | CNC(CC(C)C)C(=O)NC1C(=O)NC(CC(N)=O)C(=O)NC2C(=O)NC3C(=O)NC(C(=O)NC(C(=O)NCCCNC(=O)c4cc5ccccc5o4)c4cc(O)cc(O)c4-c4cc3ccc4O)C(O)c3ccc(c(Cl)c3)Oc3cc2cc(c3OC2OC(CO)C(O)C(O)C2OC2CC(C)(N)C(O)C(C)O2)Oc2ccc(cc2Cl)C1O (centres unmarked) [Vanc-25] | 3.13 (≈ 5.16 µg/mL) | 32 | > 250 | 0.39 (≈ 0.643 µg/mL) | 4 | 25 (≈ 41.2 µg/mL) | 16 | 12.5 (≈ 20.6 µg/mL) | 0.39 (≈ 0.643 µg/mL) | 16 | > 250 | 2 | 0.39 (≈ 0.643 µg/mL) | 2 | 0.39 (≈ 0.643 µg/mL) | 2 | 0.39 (≈ 0.643 µg/mL) | 4 | 0.39 (≈ 0.643 µg/mL) | 2 | MIC-fold improvement vs. vancomycin [13]: 2; MIC [13]: 0.39 µM (≈ 0.643 µg/mL); IC50 [14]: 199 µM; MIC-fold improvement vs. vancomycin [15]: 5.6; MIC [16]: 6.25 µM (≈ 10.3 µg/mL); MIC-fold improvement vs. vancomycin [16]: 64; MIC [17]: 0.78 µM (≈ 1.29 µg/mL); MIC-fold improvement vs. vancomycin [17]: 256; IC50 [18]: 98 ± 32 µM
3 | CNC(CC(C)C)C(=O)NC1C(=O)NC(CC(N)=O)C(=O)NC2C(=O)NC3C(=O)NC(C(=O)NC(C(=O)NCCCNC(=O)c4ccc5cc(OC)ccc5c4)c4cc(O)cc(O)c4-c4cc3ccc4O)C(O)c3ccc(c(Cl)c3)Oc3cc2cc(c3OC2OC(CO)C(O)C(O)C2OC2CC(C)(N)C(O)C(C)O2)Oc2ccc(cc2Cl)C1O (centres unmarked) [Vanc-29] | 3.13 (≈ 5.29 µg/mL) | 32 | > 250 | 0.20 (≈ 0.338 µg/mL) | 8 | 25 (≈ 42.2 µg/mL) | 16 | 12.5 (≈ 21.1 µg/mL) | 0.39 (≈ 0.659 µg/mL) | 16 | > 250 | 2 | 0.39 (≈ 0.659 µg/mL) | 2 | 0.39 (≈ 0.659 µg/mL) | 2 | 0.39 (≈ 0.659 µg/mL) | 7 | 0.39 (≈ 0.659 µg/mL) | 2 | MIC-fold improvement vs. vancomycin [13]: 2; MIC [13]: 0.39 µM (≈ 0.659 µg/mL); IC50 [14]: 185 µM; MIC-fold improvement vs. vancomycin [15]: 5.6; MIC [16]: 6.25 µM (≈ 10.6 µg/mL); MIC-fold improvement vs. vancomycin [16]: 64; MIC [17]: 1.56 µM (≈ 2.64 µg/mL); MIC-fold improvement vs. vancomycin [17]: 128; IC50 [18]: 54 ± 44 µM
